PubChem BioAssay AID652 (University of Pittsburgh Molecular Library Screening Center, 2007)

The compounds below were run against Gag-Pol polyprotein (Human immunodeficiency virus type 1 group M subtype B (isolate HXB2)) (UniProt P04585) (assay: concentration-response of HIV-1 RNase H blockers – biochemical, probe assessment, dose response (AID 652)). Settings: HIV-1 RT RNase H enzymatic assay.

Structure (SMILES)	IC50 [nM]
Fc1ccccc1CSc1nc2ncccc2[nH]1	9720
COc1ccc(C2C(C#N)=C(N)N3C(=C2C#N)Sc2ccccc23)cc1 (stereo unspecified)	3350
S=C(c1ccc(-c2ccccc2Cl)o1)N1CCOCC1	926
CN(C)c1ccc(N=Cc2c(O)n(CCC3=CCCCC3)c(=O)[nH]c2=O)cc1	3800
O=C(CCSCCC(=O)NCc1ccco1)NCc1ccco1	953
COc1ccc(C(=S)N(C)C)cc1OC	3610
Cc1ccccc1N1C(=O)c2sc3nc4c(c(=O)n3c2C1=O)CCC4	2370
Oc1ccc(-c2nc(-c3ccc(O)c(O)c3)cs2)cc1	2230
O=C1CCCC(O)=C1C(C#Cc1ccccc1)C1=C(O)CCCC1=O	1080

Same assay, conditions: HIV-1 RT RNase H enzymatic assay, inhibition, at 50 µM, stronger effect = higher value

Structure (SMILES)	inhibition [%]
Cc1ccc2c(SCC(=O)NCc3ccco3)nc(-c3ccc(F)cc3)nc2c1	79.6
CCCCCC#CCC#CCC#CCC#CCCCC(=O)O	98
COc1ccc(S(=O)(=O)Nc2ccc(O)c3ccccc23)cc1	67.3
O=C(O)/C=C/c1ccc(O)c(O)c1	52.1
Nc1c(C(=O)N2CCOCC2)sc(=S)n1-c1ccccc1	75.2
OCCN1CCN(C(=S)c2ccc(Cl)c(Cl)c2)CC1	76.6
O=C(NC1CCCCC1)c1sc(=S)n2c1[nH]c(=O)c1ccccc12	96.5
Fc1ccccc1CSc1nc2ncccc2[nH]1	57.7
CCOC(=O)c1sc(NC(=O)CSc2n[nH]c(-c3ccccc3)n2)c(C#N)c1C	101
Cc1cc(C)cc(OCC(=O)Nc2nonc2NC(=O)COc2cc(C)cc(C)c2)c1	88
Cc1ccc(-n2nc(C)c3c2NC(=O)CSC3c2ccc3c(c2)OCO3)cc1 (stereo unspecified)	89.4
COC(=O)c1oc2ccc(Br)cc2c1NC(=O)c1ccccc1	94
Cc1cccc(-c2nsc(SCC(=O)Nc3nccs3)n2)c1	97.3
COC(=O)c1ccc2c(=O)[nH]c(CN3c4ccccc4CC3C)nc2c1 (stereo unspecified)	62.3
C=CCNC(=O)c1c(N)n(-c2ccc3c(c2)OCO3)c2nc3ccccc3nc12	55.2
COc1ccccc1CNC(=O)c1cc2c(=O)n(C)c3ccccc3c2n1C	86
CN(C)c1cccc(C(=O)Nc2cccc(F)c2)c1	72
CC(C)(C)C1=Nn2c(nnc2-c2ccccn2)SC1	80.5
CC(C)c1nc2sc3c(SCC(=O)NCc4ccco4)ncnc3c2c2c1CCC2	94.1
CC(C)c1ccc2oc(-c3ccc(NC(=O)c4ncn[nH]4)cc3)nc2c1	92.7
CCOC(=O)C1=C(C)N=c2s/c(=C3\C(=O)Nc4ccccc43)c(=O)n2C1c1ccc2c(c1)OCO2 (stereo unspecified)	83.8
O=C(Nc1ccc2nc(-c3ccco3)c(-c3ccco3)nc2c1)N1CCCCCC1	97
COc1ccccc1N=c1oc2c(OC)cccc2cc1C(=O)NCc1ccco1	94.1
Clc1ccccc1-c1nn2c(-c3ccncc3)nnc2s1	79.3
CN1CSC2=C(C#N)C(c3cccc(OCc4ccccc4)c3)CC(=O)N2C1 (stereo unspecified)	89.7
COc1cc(N=c2ssnc2Cl)cc(OC)c1OC	78.8

Structure (SMILES)	inhibition [%]
Cc1ccc(Cn2c(SCC(C)C)nc3c2c(=O)[nH]c(=O)n3C)cc1	91.8
N#Cc1cc(-c2ccccc2)nn1-c1ccccc1	99.4
c1ccc2[nH]c(SN3CCOCC3)nc2c1	74.2
O=C(CSc1nnnn1-c1ccccc1)Nc1nsc(-c2ccc(Cl)cc2)n1	48.8
COc1ccc(C2C(C#N)=C(N)N3C(=C2C#N)Sc2ccccc23)cc1 (stereo unspecified)	92
S=C(c1ccc(-c2ccccc2Cl)o1)N1CCOCC1	92.6
COc1ccc(N2CCN(Cc3cc(=O)oc4cc(C)c(Cl)c(C)c34)CC2)cc1	96
O=C(NC1CCS(=O)(=O)C1)c1c(NC(=O)C2COc3ccccc3O2)sc2c1CCCC2 (stereo unspecified)	88.4
c1ccc2c(c1)nnn2Cc1nnc2sc(-c3ccc4c(c3)OCCO4)nn12	85.3
O=C(Nc1nc(-c2ccncc2)cs1)c1ccco1	87.1
O=C(Cn1c(=O)oc2cc(S(=O)(=O)N3CCCC3)ccc21)NC1CCCc2ccccc21 (stereo unspecified)	58.8
COc1ccc(C2C(C(C)=O)=C(C)N=c3s/c(=C/c4ccc5c(c4)OCO5)c(=O)n32)cc1 (stereo unspecified)	82.2
CN(C)c1ccc(N=Cc2c(O)n(CCC3=CCCCC3)c(=O)[nH]c2=O)cc1	80.1
Cc1ccc2c(c1C)NC(C(=O)O)C1CC=CC21 (stereo unspecified)	96.5
O=C(CCSCCC(=O)NCc1ccco1)NCc1ccco1	98.4
Cc1ccc(-n2c(N)c(C(=O)N3CCCCC3)sc2=S)cc1	79.5
O=C(CSc1nc2sc3c(c2c(=O)n1-c1ccccc1)CCCC3)NCc1ccco1	77.8
Cc1ccc(-n2sc3ccccc3c2=O)cc1S(=O)(=O)N1CCCCC1	96.9
COc1ccc(C(=S)N(C)C)cc1OC	78.6
CC(=O)C(C(C)=O)c1c(Cl)c(O)c(O)c2c(C(=O)c3ccccc3)coc12	93.1
CCCCC[C@H](O)/C=C/[C@H]1C=CC(=O)[C@@H]1C/C=C\CCCC(=O)O	101
CCOC(=O)c1c(C2COc3ccccc3O2)csc1NC(=O)c1ccco1 (stereo unspecified)	96.6
CCC1CC2(C)NC(=O)c3c(sc4c3CC(C)(C)OC4)N2C1=O (stereo unspecified)	82.8
c1ccc(Cc2nn3c(Cn4cnc5ccccc54)nnc3s2)cc1	91.2
COc1ccc(CCNC(=O)c2c(O)c3cccc4c3n(c2=O)CC4)cc1	67.1
C=CCSc1nc2c(c(=O)[nH]c(=O)n2C)n1C(C)C	60.6

Structure (SMILES)	inhibition [%]
Cc1sc(NC(=O)c2oc3ccccc3c2C)c(C#N)c1C	90.3
C=CCn1c(=O)c(C(=O)Nc2nnc(C)s2)c(O)c2ccccc21	84.5
O=C1CC(c2ccccc2)Cc2nc(N3CCc4ccccc43)ncc21 (stereo unspecified)	94.6
c1c2c(cc3sc(N4CCOCC4)nc13)OCO2	78.1
CCCCCn1c(=O)c(C(=O)NCc2ccncc2)c(O)c2ccccc21	96
Cc1noc(C)c1CSc1nc2cc(S(=O)(=O)N3CCOCC3)ccc2o1	88.3
CCCN(CCC)S(=O)(=O)c1ccc(C(=O)Nc2nnc(-c3cccc(OC)c3)o2)cc1	87.4
CCOc1cc(C2CC(=O)N3CN(C4CCCCC4)CSC3=C2C#N)ccc1O (stereo unspecified)	85.6
O=C(CCN1C(=O)c2ccccc2C1=O)Nc1ccc(-c2nc3ccccc3o2)cc1	92.1
CCOC(=O)c1c(NC(=O)c2cc(C3CC3)on2)sc2c1CCCC2	97.1
CCOc1ccc(-n2c(=O)c3c4c(sc3n(CC(=O)NCc3ccco3)c2=O)CCC4)cc1	89.9
O=C(O)c1cc(S(=O)(=O)Nc2ccc3oc(=O)sc3c2)ccc1O	88.2
Cc1ccccc1N1C(=O)c2sc3nc4c(c(=O)n3c2C1=O)CCC4	98.7
NC(=O)c1cc(-c2ccccc2)sc1NC(=O)Cc1ccc(S(=O)(=O)N2CCOCC2)s1	83.3
CCN(Cc1ccccc1)S(=O)(=O)c1ccc(C(=O)Nc2nnc(-c3ccccc3OC)o2)cc1	95.8
CCCc1nc2ccccc2c(=O)n1/N=C/c1ccc(O)c(O)c1	97.3
CCCCCn1c(SCCCC)nc2c1c(=O)[nH]c(=O)n2C	91.1
Cc1cccc(OCC(=O)Nc2cccc(-c3nnc(-c4ccccc4)o3)c2)c1C	88.1
COC(=O)c1ccc2c(=O)n(Cc3ccco3)c(SCC(=O)Nc3ccc(C)c(Cl)c3)nc2c1	92.1
Oc1ccc(-c2nc(-c3ccc(O)c(O)c3)cs2)cc1	101
O=C(COc1ccc(Br)cc1)Nc1ccc(-c2nnc(-c3ccco3)o2)cc1	95.1
Cc1cc(NC(=O)CSc2nc3cc4c(cc3c(=O)n2CCc2ccccc2)OCO4)no1	76.9
O=C1CCCC(O)=C1C(C#Cc1ccccc1)C1=C(O)CCCC1=O	90.9
CCn1c2ccccc2c2nc3cc(S(=O)(=O)N4CCOCC4)ccc3nc21	88.9
O=C(CCCn1c(SCC(=O)c2ccc(O)c(O)c2)nc2ccccc2c1=O)NCC1CCCO1 (stereo unspecified)	99.4
